Measured values from patent publication US8124840B2, “Regulating metabolism by modifying the level of trehalose-6-phosphate” (Syngenta Mogen B.V., priority 1996, dated 2012).

Experiments:
hexokinase = test: Hexokinase assay on mouse hybridoma cell extract with/without trehalose-6-phosphate; assay type: biochemical; details: for V2 (ODU/min): hexokinase rate with T6P
Experimental: Hexokinase activity was measured in an assay containing 0.1 M Hepes-KOH pH 7.0, 4 mM MgCl2, 5 mM ATP, 0.2 mM NADP^+, 10 U/ml Creatine Phosphate Kinase (dissolved in 50% glycerol, 0.1% BSA, 50 mM Hepes pH 7.0), 3.5 mM Creatine Phosphate, 7 U/ml Glucose-6-Phosphate Dehydrogenase and 2 mM Glucose by measuring the increase in OD at 340 nm at 25° C.
When 2 mM Fructose was used instead of glucose as substrate for the hexokinase reaction, 3.8 U/ml Phosphoglucose Isomerase was included. Alternatively, a hexokinase assay as described by Gancedo et al. (1977) J. Biol. Chem. 252, 4443 was used.
A hexokinase assay was performed using glucose or fructose as substrate under conditions as described by Gancedo et al. (see above). Mouse hybridoma cells were subjected to osmotic shock by exposing a cell pellet to 20% sucrose, followed by distilled water. This crude protein extract was used in the hexokinase assay (50 μl) extract corresponding to ca. 200 μg protein).

potato microtubers = test: Trehalose accumulation in potato microtubers induced on medium with Validamycin A; assay type: in vivo, Solanum tuberosum cv. Kardal; details: for Trehalose (% fresh weight): +Validamycin A 10^−3 M
Experimental: Stem segments of in vitro potato plants harbouring an auxiliary meristem were transferred to micro-tuber inducing medium. Micro-tuber inducing medium contains 1 X MS-salts supplemented with R3 vitamins, 0.5 g/l MES (final pH=5.8, adjusted with KOH) and solidified with 8 g/l Daichin agar, 60 g/l sucrose and 2.5 mg/l kinetin. After 3 to 5 weeks of growth in the dark at 24° C., micro-tubers were formed.
(§1) Validamycin A was isolated from Solacol, a commercial agricultural formulation (Takeda Chem. Indust., Tokyo) as described by Kendall et al. (1990) Phytochemistry 29, 2525. The procedure involves ion-exchange chromatography (QAE-Sephadex A-25 (Pharmacia), bed vol. 10 ml, equilibration buffer 0.2 mM Na-Pi pH 7) from a 3% agricultural formulation of Solacol. Loading 1 ml of Solacol on the column and eluting with water in 7 fractions, practically all Validamycin was recovered in fraction 4. Based on a 100% recovery, using this procedure, the concentration of Validamycin A was adjusted to 1.10^−3 M in MS-medium, for use in trehalose accumulation tests. Alternatively, Validamycin A and B may be purified directly from Streptomyces hygroscopicus var. limoneus, as described by Iwasa et al. (1971) J. Antibiot. 24, 119, the content of which is incorporated herein by reference.
Carbohydrates were determined quantitatively by anion exchange chromatography with pulsed electrochemical detection. Extracts were prepared by extracting homogenized frozen material with 80% EtOH. After extraction for 15 minutes at room temperature, the soluble fraction is evaporated and dissolved in distilled water. Samples (25 μl) were analyzed on a Dionex DX-300 liquid chromatograph equipped with a 4×250 mm Dionex 35391 carbopac PA-1 column and a 4×50 mm Dionex 43096 carbopac PA-1 precolumn. Elution was with 100 mM NaOH at 1 ml/min followed by a NaAc gradient. Sugars were detected with a pulsed electrochemical detector (Dionex, PED). Commercially available carbohydrates (Sigma) were used as a standard.
Potato Solanum tuberosum cv. […] The presence of small amounts of trehalose in wild-type plants indicates the presence of a functional trehalose biosynthetic pathway.
Evidence for the presence of a trehalose biosynthesis pathway in tobacco was obtained by culturing wild-type plants in the presence of 10^−3M of the trehalase inhibitor Validamycin A. The treated plants accumulated very small amounts of trehalose, up to 0.0021% (fw). Trehalose accumulation was never detected in any control plants cultured without inhibitor. Similar data were obtained with wild-type microtubers cultured in the presence of Validamycin A. Ten out of seventeen lines accumulated on average 0.001% trehalose (fw)/(Table 4).

wild-type tobacco plants = test: Trehalose accumulation in wild-type tobacco plants cultured with Validamycin A; assay type: in vivo; details: wild-type tobacco plants cultured with 10^−3M Validamycin A
Experimental: as §1, with “1.10^-3” for “1.10^−3”, “reference. Carbohydrates were determined quantitatively by anion exchange chromatography with pulsed electrochemical detection. […] Samples (25 μl) were analyzed on a Dionex DX-300 liquid chromatograph equipped with a 4×250 mm Dionex 35391 carbopac PA-1 column and a 4×50 mm Dionex 43096 carbopac PA-1 precolumn. […] Sugars were detected with a pulsed electrochemical detector (Dionex, PED). […] Trehalose accumulation was never detected in any control plants cultured without inhibitor. […]” for “reference.”

[1] = tested on: trehalases from various sources; details: cited from earlier work
α- or β-glycohydrolase = details: except for trehalase; cited from earlier work
[2] = substrate Fructose 20 mM, T6P 0.23
[3] = substrate Fructose 20 mM, T6P 0.43
[4] = substrate Fructose 20 mM, T6P 0.83
[5] = substrate Fructose 20 mM, T6P 1.67
[6] = substrate Glucose 2 mM, T6P 0.83
[7] = substrate Glucose 20 mM, T6P 0.83
[8] = substrate Glucose 100 mM, T6P 0.83

Structure (SMILES): O=P(O)(O)OC[C@H]1O[C@H](O[C@H]2O[C@H](CO)[C@@H](O)[C@H](O)[C@H]2O)[C@H](O)[C@@H](O)[C@@H]1O [T-6-P, trehalose-6-phosphate]
- Hexokinase activity in mouse cell extracts (hexokinase; crude extract of mouse hybridoma cells): is inhibited
- V2 (ODU/min) (hexokinase; [2]): 0.0205 ODU/min
- V2 (ODU/min) (hexokinase; [3]): 0.0197 ODU/min
- V2 (ODU/min) (hexokinase; [4]): 0.0151 ODU/min
- V2 (ODU/min) (hexokinase; [5]): 0.0133 ODU/min
- V2 (ODU/min) (hexokinase; [6]): 0.0133 ODU/min
- V2 (ODU/min) (hexokinase; [7]): 0.0141 ODU/min
- V2 (ODU/min) (hexokinase; [8]): 0.0125 ODU/min
- Efficiency of hexokinase inhibition, glucose versus fructose as substrate (hexokinase; mouse cell extracts): No difference
- Inhibition (%) (hexokinase; [2]): 1%
- Inhibition (%) (hexokinase; [3]): 26%
- Inhibition (%) (hexokinase; [4]): 35%
- Inhibition (%) (hexokinase; [5]): 46%
- Inhibition (%) (hexokinase; [6]): 35%
- Inhibition (%) (hexokinase; [7]): 35%
- Inhibition (%) (hexokinase; [8]): 34%

Structure (SMILES): OCC1=C[C@@H](N[C@H]2C[C@H](CO)[C@@H](O[C@H]3O[C@@H](CO)[C@H](O)[C@@H](O)[C@@H]3O)[C@H](O)[C@H]2O)[C@H](O)[C@@H](O)[C@@H]1O [Validamycin A]
- Trehalose (% fresh weight) (potato microtubers; microtubers of pMOG845 line 845-2): 0.016 % fresh weight
- Trehalose (% fresh weight) (potato microtubers; microtubers of pMOG845 line 845-8): 0.051 % fresh weight
- Trehalose (% fresh weight) (potato microtubers; microtubers of pMOG845 line 845-11): 0.015 % fresh weight
- Trehalose (% fresh weight) (potato microtubers; microtubers of pMOG845 line 845-13): 0.011 % fresh weight
- Trehalose (% fresh weight) (potato microtubers; microtubers of pMOG845 line 845-22): 0.112 % fresh weight
- Trehalose (% fresh weight) (potato microtubers; microtubers of pMOG845 line 845-25): 0.002 % fresh weight
- Trehalose (% fresh weight) (potato microtubers; microtubers of pMOG845 line 845-28): 0.109 % fresh weight
- Trehalose (% fresh weight) (potato microtubers; microtubers of wild type Kardal): 0.001 % fresh weight
- Trehalose level in microtubers versus medium without Validamycin A (potato microtubers; transgenic (pMOG845) and wild-type microtubers, 10^−3 M Validamycin A): elevated levels of trehalose
- Trehalose accumulation, average (potato microtubers; wild-type microtubers cultured with Validamycin A, ten out of seventeen lines): 0.001 % trehalose (fw)
- Trehalose accumulation (wild-type tobacco plants): up to 0.0021 % (fw)
- IC50 [1]: 0.1 to 1000 nM
- Inhibition of α- or β-glycohydrolase activity (α- or β-glycohydrolase): does not significantly inhibit
